Measured values: patent publication US8999323B2, “Composition that can be cured by polymerisation for the production of biodegradable, biocompatible, cross-linkable polymers on the basis of polyvinyl alcohol” (Technische Universität Wien, priority 2007, dated 2015)
Like-named read-outs stand apart in the source and are kept apart here.

Key:
Format in all cases: cell-based
in vitro = conditions: mouse
Text: (§1) In order to assess toxicity, osteoblast-like cells MC3T3-E1 (source: ATCC CRL-2596) were used. At first, the adherent cells were separated from each other and from the bottom of the petri dishes using pronase, and were then mixed with freshly prepared medium consisting of commercially available Minimal Essential Medium Eagle's alpha Modification (αMEM), supplemented with additional glucose from originally 1 g/l to a glucose concentration of 4.5 g/l as well as with 10% FCS (fetal calf serum), 30 μg/ml gentamycin (broad-spectrum antibiotic), L-glutamine (400 mg/l), and ascorbic acid (50 mg/l), so as to obtain a cell concentration of 40,000 cells/ml. 1 ml of this cell suspension was precharged into each well (diameter 1.9 cm) of multi-well plates.
(§2) The multi-well containing the cells was incubated for 5 days at 37° C. under a humid atmosphere with 5% CO2 together with increasing amounts of the monomers used in the examples and comparative examples. Then the cells were washed with phosphate-buffered physiological saline and frozen before the measurements, in order to break up the cells. After thawing of the cells, the amount of deoxyribonucleic acid, which is proportional to the cell count, was determined by staining with a fluorescent dye, measuring the fluorescence at 460 nm (after excitation at 360 nm) and comparing the value to a calibration curve previously prepared.

[1] = tested on: human umbilical vein endothelial cells (HUVEC); assay: Toxicity test of monomers with endothelial cells (EZ4U)
Experimental: For an additional toxicity test of monomers of formula (I), human umbilical vein endothelial cells (HUVEC) were used. After trypsinating the confluent primary cultures, the cells were suspended in commercial Medium 199 with 20% fetal calf serum, put into 96-well cell culture plates in a concentration of 40,000 cells/cm^2, and cultivated until they were confluent again (37° C., 5% CO2). The cell supernatants were then lifted, and the endothelial cells were incubated for 24 hours with increasing monomer concentrations (0.1 nM to 1 mM in Medium 199 with 10% fetal calf serum). The influence on cell proliferation was examined by means of a non-radioactive cell proliferation and cytotoxicity test (EZ4U, Biomedica, Vienna). This test is based on the conversion by living cells of colorless tetrazolium salts into intensively colored formazan derivatives. The photochemically measured staining is proportional to the number of living cells in the sample. Thus, the influence of the test substances on the proliferation of the cells may be photometrically determined. Endothelial cells which had been cultivated without the addition of monomer solutions were used as a growth control.

[2] = tested on: osteoblast-like cells MC3T3-E1; assay: in vitro
Text: as §1, §2

[3] = MC3T3-E1, 5 days incubation, DNA fluorescence, values are LC50 × 10^4
[4] = HUVEC, 24 hours, concentration of half-maximum proliferation inhibition

Compound | CC50 (in vitro; [3]) [mM] | CC50 at 5 days (in vitro) [mM] | other results
C=COP(=O)(OC=C)OCC [DVEP, divinyl ethyl phosphate] | > 10 | – | –
C=COC(=O)NCCCOCCOCCCNC(=O)OC=C [JAVM, 3,3′-ethylenedioxy bis(propylamine)divinyl carbamate] | > 10 | – | –
C=COC(=O)CCCCC [HVE, hexanoic acid vinyl ester] | – | > 10 | Cmax1/2 [1, 4]: >1000 µM
C=COC(=O)OCC(COC(=O)OC=C)OC(=O)OC=C [GTVC, glycerine tris(vinyl carbonate)] | – | > 10 | –
C=COC(=O)N(C)CC(=O)OC [SMEVCA, sarcosine methyl ester vinyl carbamate] | > 10 | – | –
C=C(C)C(=O)OCCCCOC(=O)C(=C)C [BDMA, 1,4-butanediol dimethacrylate, reference compound] | < 0.01 | – | Cmax1/2 [1, 4]: 40 µM
C=COC(=O)OCCCCCCOC(=O)OC=C [HDDVC, 1,6-hexanediol bis(vinyl carbonate)] | – | > 10 | –
C=COC(=O)CCCCCCC(=O)OC=C [KVE, octanedioic acid divinyl ester] | – | > 10 | Cmax1/2 [1, 4]: >1000 µM
C=COC(=O)CCCCCCCCC(=O)OC=C [SEVE, sebacic acid divinyl ester] | – | > 10 | Cmax1/2 [1, 4]: >1000 µM
C=COC(=O)OCCC#N [CEVC, 2-cyanoethyl vinyl carbonate] | – | > 10 | –
C=COC(=O)ON(C)C(=O)OC=C [MHADVC, N,O-Bis(vinyloxycarbonyl)-N-methyl hydroxylamine] | > 10 | – | –
C=COC(=O)OCCOCCOC(=O)OC=C [DEGDVC, diethylene glycol bis(vinyl carbonate)] | – | > 10 | –
polyethylene glycol(400) bis(vinyl carbonate) [PEGDVC] | – | – | CC50 [2]: > 10 mM
C=COC(=O)CCCCCCCCC [DVE, decanoic acid vinyl ester] | – | > 10 | Cmax1/2 [1, 4]: >1000 µM
diethylene glycol bis[O—(O′- vinylmaleinoy1)-polylactate] [DVMPL] | – | – | Cmax1/2 [1, 4]: >1000 µM
C=COC(=O)NCCOP(=O)(OCC)OCCNC(=O)OC=C [EBVCAEP, ethyl bis[2-(vinyloxycarbonylamino)ethyl]phosphate] | > 10 | – | –
C=CC(=O)OCC(CC)(COC(=O)C=C)COC(=O)C=C [TTA, trimethylolpropane triacrylate, reference compound] | < 0.01 | – | Cmax1/2 ([1]; human, 24 h): 10 µM

Compound | CC50 (in vitro; [3]) [mM] | CC50 at 5 days (in vitro) [mM] | other results
C=COP(=O)(OCC)OCC [DEVP, diethyl vinyl phosphate] | > 10 | – | –
hydrated ricinus oil tris(vinyl carbonate) [HRiTVC] | – | – | CC50 [2]: > 10 mM
C=COC(=O)OCC [EVC, ethylvinyl carbonate] | – | > 10 | –
C=COC(=O)[C@H](Cc1ccccc1)NC(C)=O [PAVE, N-acetyl phenylalanine vinyl ester] | – | > 10 | Cmax1/2 [1, 4]: >1000 µM
C=COC(=O)N(OC)C(=O)C=C [AMVCA, N-acryloyl N-methoxy vinyl carbamate] | < 0.01 | – | toxicity for osteoblasts compared with the acrylates of the comparative examples ([2]; statement on Table 2): similarly toxic as the majority of the comparative examples
C=COC(=O)CCCCC(=O)OC=C [AVE, adipic acid divinyl ester] | – | – | Cmax1/2 [1, 4]: >1000 µM
C=COC(=O)CC(C)C(C)C(CC(=O)OC=C)C(C)CC(=O)OC=C (centres unmarked) [TFVE, trimeric fatty acid trivinyl ester] | – | > 10 | –
ethoxylated (20) TTA, MG 1200 [ETA, reference compound] | – | – | CC50 [2]: 0.07 mM; Cmax1/2 ([1]; human): 100 µM
polyethylene glycol diacrylate, MG 800 [PEG-DA, reference compound] | – | – | CC50 [2]: 0.11 mM; Cmax1/2 ([1]; human): 500 µM
C=COC(=O)OCCOC(=O)OC=C [EGDVC, ethylene glycol bis(vinyl carbonate)] | – | > 10 | –
C=COC(=O)NOC [MVCA, N-methoxy vinyl carbamate] | > 10 | – | –
C=COP(=O)(OC=C)OC=C [TVP, trivinyl phosphate] | > 10 | – | –
C=COC(=O)COCCOCCOCC(=O)OC=C [TUVE, ω,ω′-3,6,9-trioxaundecanedioic acid divinyl ester] | – | > 10 | –
C=COC(=O)N(C)CCN(C)C(=O)OC=C [N,N′-dimethyl ethylenediamine bis(vinyl carbamate)] | > 10 | – | –
C=CC(=O)OCCCCCCOC(=O)C=C [HDDA, 1,6-hexanediol diacrylate, reference compound] | < 0.01 | – | Cmax1/2 [1, 4]: 20 µM
C=COC(=O)OCCCCOC(=O)OC=C [BDDVC, 1,4-butanediol bis(vinyl carbonate)] | – | – | CC50 at 5 days (in vitro; osteoblast-like MC3T3-E1 cells (ATCC CRL-2596), MC3T3-E1, 5 days incubation, DNA fluorescence, values are LC50 × 10^4, read-out: In vitro LC50 × 10^4): > 10 mM
